pIC50: −log10 of the molar value.
Key:
[1] = system: yeast α-glucosidase; test: Assay for α-glucosidase inhibition (p-nitrophenyl-α-D-glucopyranoside substrate, absorbance at 405 nm); format: biochemical; conditions: for α-glucosidase inhibitory effect (in words): compared with acarbose; for α-Glucosidase IC50 ± SD: tested three times, mean ± SD
Procedure: The yeast α-glucosidase (G0660, Sigma-Aldrich) inhibition assay was performed using the substrate p-nitrophenyl-α-D-glucopyranoside according to the previously described method. […] After 5 min preincubation, 5 mM p-nitrophenyl-α-D-glucopyranoside solution ([…]) was added, and the solution was incubated at 37°C for 30 min. […]. Each concentration of samples was carried out in triplicate. The absorbance of released 4-nitrophenol was measured at 405 nm by using a microplate reader (xMark, Bio-Rad, USA). […] The inhibitory activity was calculated by the following equation: α-glucosidase inhibitory activity (%) = (1–A/A0) × 100, where A is the absorbance of the sample and A0 is the absorbance of the blank, respectively. The IC50 value was calculated by GraphPad Prism.
(§1) Inhibition of α-glucosidase is one very effective way of delaying glucose absorption and lowering the postprandial blood glucose level, which can potentially suppress the progression of DM.

[2] = target: T1, porcine pancreas α-amylase (Sus scrofa, UniProt P00690); test: Assay for α-amylase inhibition (potato starch substrate, iodine, absorbance at 650 nm); format: biochemical; conditions: for α-amylase inhibitory effect (in words): compared with acarbose; for pIC50: porcine pancreas α-amylase, tested three times, mean ± SD
T1 construct: purchased Sigma-Aldrich A3176
T1 sequence (P00690 16-511): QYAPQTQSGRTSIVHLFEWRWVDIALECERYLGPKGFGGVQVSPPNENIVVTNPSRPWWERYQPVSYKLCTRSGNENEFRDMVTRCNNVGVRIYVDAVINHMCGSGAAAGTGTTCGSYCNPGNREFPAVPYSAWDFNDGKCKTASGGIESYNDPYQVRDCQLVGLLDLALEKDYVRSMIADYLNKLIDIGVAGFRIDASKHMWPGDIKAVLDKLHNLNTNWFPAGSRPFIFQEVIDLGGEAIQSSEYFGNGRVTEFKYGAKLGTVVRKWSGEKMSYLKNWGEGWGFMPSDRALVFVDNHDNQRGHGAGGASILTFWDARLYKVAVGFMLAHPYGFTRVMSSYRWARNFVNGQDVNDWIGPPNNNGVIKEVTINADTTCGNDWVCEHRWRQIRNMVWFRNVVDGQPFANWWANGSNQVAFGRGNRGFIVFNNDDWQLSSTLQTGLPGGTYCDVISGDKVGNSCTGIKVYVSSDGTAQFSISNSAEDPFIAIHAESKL
Procedure: The substrate was prepared by boiling 100 mg potato starch in 5 mL phosphate buffer (pH 7.0) for 5 min and then cooling to room temperature. The sample ([…] dissolved in DMSO) and substrate ([…]) were mixed in […] of 0.1 M phosphate buffer (pH 7.0). After 5 min preincubation, 5 mg/mL α-amylase solution (20 mL) was added, and the solution was incubated at 37°C for 15 min. The reaction was stopped by adding […] of 1 M·HCl, and then, […] of iodine solution was added. The absorbances were measured at 650 nm by a microplate reader. […] The inhibitory activity was calculated by the following equation: α-amylase inhibitory activity (%) = (1–A/A0) × 100, where A is the absorbance of the sample and A0 is the absorbance of the blank, respectively. The IC50 value was calculated by GraphPad Prism.
as §1

α-glucosidase inhibitory effect (in words) [1] | α-Glucosidase IC50 ± SD ([1]; yeast α-glucosidase) | α-amylase inhibitory effect (in words) [2] | pIC50 [2] | Compound | α-Glucosidase inhibition (symbol in IC50 column) ([1]; yeast α-glucosidase, dash = no inhibition (less than 10% inhibition))
moderate | 821.4 ± 55.2 µg/mL | moderate | 3.08 | C[C@@H]1CC[C@]2(C(=O)O)CC[C@]3(C)C(=CC[C@@H]4[C@@]5(C)CC[C@H](O)C(C)(C)[C@@H]5CC[C@]43C)[C@@H]2[C@]1(C)O [Compound 9, pomolic acid] | –
moderate | – | moderate | 3.05 | C[C@@H]1CC[C@]2(C(=O)O)CC[C@]3(C)C(=CC[C@@H]4[C@@]5(C)CCC(=O)C(C)(C)[C@@H]5CC[C@]43C)[C@@H]2[C@]1(C)O [Compound 8, pomonic acid] | — ((‒): no inhibition (less than 10% inhibition))
moderate | 915.6 ± 36.5 µg/mL | moderate | 2.87 | CC(O)C=CC12OC1(C)C(O)C(OS(=O)(=O)O)CC2(C)C [Compound 1, (3S,4R,5R,6S,9S,7E)-megastigman-5,6-epoxy-7-ene,4,9-diol,3-sulfonic acid] | –

Compound | α-glucosidase inhibitory effect (in words) [1] | α-Glucosidase IC50 ± SD ([1]; yeast α-glucosidase) | α-amylase inhibitory effect (in words) [2] | pIC50 [2] | α-Glucosidase inhibition (symbol in IC50 column) ([1]; yeast α-glucosidase, dash = no inhibition (less than 10% inhibition))
COc1cc(-c2cc(=O)c3c(O)c(OC)c(O)cc3o2)ccc1O [Compound 7, jaceosidin] | – | 785.9 ± 12.7 µg/mL | – | 3.47 | –

From paper PMC5971303, “α-Amylase and α-Glucosidase Inhibitory Activities of Chemical Constituents from Wedelia chinensis (Osbeck.) Merr. Leaves” (Journal of Analytical Methods in Chemistry, 2018)
